Measured values published in patent US7053107B2, “Indazole compounds and pharmaceutical compositions for inhibiting protein kinases, and methods for their use” (Agouron Pharmaceuticals, Inc., priority 2002, dated 2006).

How the values were obtained:
[1] = biological target: T1, unphosphorylated VEGF-R2Δ50 (Homo sapiens, UniProt P35968, DEL940-989/E990V); assay: VEGF-R2 coupled spectrophotometric assay, unphosphorylated construct (FLVK); format: biochemical; settings: for inhibition at 0.05 µM: % inhibition at 50 nM compound, read-out: FLVK Ki % inh @ 50 nM
T1 construct: VEGF-R2Δ50 contains residues 806–939 and 990–1171; made in house; host or cells: baculovirus/insect cell system
Text: This construct determines the ability of a test compound to inhibit tyrosine kinase activity. A construct (VEGF-R2Δ50) of the cytosolic domain of human vascular endothelial growth factor receptor 2 (VEGF-R2) lacking the 50 central residues of the 68 residues of the kinase insert domain was expressed in a baculovirus/insect cell system. Of the 1356 residues of full-length VEGF-R2, VEGF-R2Δ50 contains residues 806–939 and 990–1171, and also one point mutation (E99OV) within the kinase insert domain relative to wild-type VEGF-R2. Autophosphorylation of the purified construct was performed by incubation of the enzyme at a concentration of 4 μM in the presence of 3 mM ATP and 40 mM MgCl2 in 100 mM HEPES, pH 7.5, containing 5% glycerol and 5 mM DTT, at 4° C. for 2 h. […] See Parast et al., Biochemistry, 37,16788–16801 (1998).
(§1) The production of ADP from ATP that accompanies phosphoryl transfer was coupled to oxidation of NADH using phosphoenolpyruvate (PEP) and a system having pyruvate kinase (PK) and lactic dehydrogenase (LDH). The oxidation of NADH was monitored by following the decrease of absorbance at 340 nm (e340=6.22 cm^−1 mM^−1) using a Beckman DU 650 spectrophotometer. Assay conditions for phosphorylated VEGF-R2A50 (indicated as FLVK-P in the tables below) were the following: 1 mM PEP; 250 μM NADH; 50 units of LDH/mL; 20 units of PK/mL; 5 mM DTT; 5.1 mM poly(E4Y1); 1 mM ATP; and 25 mM MgCl2 in 200 mM HEPES, pH 7.5. Assay conditions for unphosphorylated VEGF-R2Δ50 (indicated as FLVK in the tables) were the following: 1 mM PEP; 250 μM NADH; 50 units of LDH/mL; 20 units of PK/mL; 5 mM DTT; […]; 3 mM ATP; and 60 mM MgCl2 and 2 mM MnCl2 in 200 mM HEPES, pH 7.5. Assays were initiated with 5 to 40 nM of enzyme. Ki values were determined by measuring enzyme activity in the presence of varying concentrations of test compounds. The data were analyzed using Enzyme Kinetic and Kaleidagraph software.

LCK = biological target: T2, LCK (Homo sapiens, UniProt P06239, C224D/P223M); assay: Lymphocyte-Specific Protein-Tyrosine Kinase (LCK) spectrophotometric assay; format: biochemical; settings: 1 μM compound; read-out: LckP* % inhibit @1 μM
T2 construct: starting from amino acid residue 223 to the end of the protein at residue 509; made in house; host or cells: insect cells

FGF-R1 = biological target: T3, FGF-R1 (Homo sapiens, UniProt P11362, C488A/C584S/L457V); assay: Fibroblast Growth Factor (FGF-R) spectrophotometric assay; format: biochemical; settings: 1 μM compound; read-out: FGF-P % inhibit @1 μM
T3 construct: starting from the endogenous methionine residue 456 to glutamate 766; made in house; host or cells: baculovirus vector expression system
Text: The intracellular kinase domain of human FGF-R1 was expressed using the baculovirus vector expression system starting from the endogenous methionine residue 456 to glutamate 766, according to the residue numbering system of Mohammadi et al., Mol. Cell. Biol., 16, 977–989 (1996). In addition, the construct also has the following 3 amino acid substitutions: L457V, C488A, and C584S.
as §1
The spectrophotometric assay was carried out as described above for VEGF-R2, except for the following changes in concentration: FGF-R=50 nM, ATP=2 mM, and poly(E4Y1)=15 mM.

[2] = system: human umbilical vein endothelial cells (HUVEC); assay: HUVEC Proliferation Assay (VEGF-stimulated); format: cell-based
Protocol: This assay determines the ability of a test compound to inhibit the growth factor-stimulated proliferation of human umbilical vein endothelial cells (“HUVEC”). HUVEC cells (passage 3–4, Clonetics, Corp.) were thawed into EGM2 culture medium (Clonetics Corp) in T75 flasks. Fresh EGM2 medium was added to the flasks 24 hours later. Four or five days later, cells were exposed to another culture medium (F12K medium supplemented with 10% fetal bovine serum (FBS), 60 μg/mL endothelial cell growth supplement (ECGS), and 0.1 mg/mL heparin). Exponentially-growing HUVEC cells were used in experiments thereafter. Ten to twelve thousand HUVEC cells were plated in 96-well dishes in 100 μl of rich, culture medium (described above). The cells were allowed to attach for 24 hours in this medium. The medium was then removed by aspiration and 105 μl of starvation media (F12K+1% FBS) was added to each well. After 24 hours, 15 μl of test agent dissolved in 1% DMSO in starvation medium or this vehicle alone was added into each treatment well; the final DMSO concentration was 0.1%. One hour later, 30 μl of VEGF (30 ng/mL) in starvation media was added to all wells except those containing untreated controls; the final VEGF concentration was 6 ng/mL. Cellular proliferation was quantified 72 hours later by MTT dye reduction, at which time cells were exposed for 4 hours MTT (Promega Corp.). Dye reduction was stopped by addition of a stop solution (Promega Corp.) and absorbance at 595λ was determined on a 96-well spectrophotometer plate reader.
IC50 values were calculated by curve-fitting the response of A^595 to various concentrations of the test agent; typically, seven concentrations separated by 0.5 log were employed, with triplicate wells at each concentration. For screening compound library plates, one or two concentrations (one well per concentration) were employed, and the % inhibition was calculated by the following formula: % inhibition=(control−test)[…](control−starvation) where
control=A^595 when VEGF is present without test agent
test=A^595 when VEGF is present with test agent
starvation=A^595 when VEGF and test agent are both absent.

HUVEC = assay: bFGF Huvec; format: cell-based; settings: Homo sapiens
[3] = Human Liver Microsome (HLM) Assay; format: in vitro ADME
Protocol: Compound metabolism in human liver microsomes was measured by LC-MS analytical assay procedures as follows. First, human liver microsomes (HLM) were thawed and diluted to 5 mg/mL with cold 100 mM potassium phosphate (KPO4) buffer. Appropriate amounts of KPO4 buffer, NADPH-regenerating solution (containing B-NADP, glucose-6-phosphate, glucose-6-phosphate dehydrogenase, and MgCl2), and HLM were preincubated in 13×100 mm glass tubes at 37 C. for 10 min. (3 tubes per test compound—triplicate). Test compound (5 µM final) was added to each tube to initiate reaction and was mixed by gentle vortexing, followed by incubation at 37° C. […] Samples were centrifuged at 4000 rpm for 20 min. to precipitate proteins and salt (Beckman Allegra 6KR, S/N ALK98DO6, #634). Supernatant was transferred to new 12×75 mm glass tubes and evaporated by Speed-Vac centrifugal vacuum evaporator. Samples were reconstituted in 200 μL 0.1% formic acid/acetonitrile (90/10) and vortexed vigorously to dissolve. The samples were then transferred to separate polypropylene microcentrifuge tubes and centrifuged at 14000×g for 10 min. (Fisher Micro 14, S/N M0017580). […]
The combined compound samples were injected into the LC-MS system, composed of a Hewlett-Packard HP 1100 diode array HPLC and a Micromass Quattro II triple quadruple mass spectrometer operating in positive electrospray SIR mode (programmed to scan specifically for the molecular ion of each test compound. Each test compound peak was integrated at each timepoint. […]

PDGFRβ = biological target: T4, PDGFRβ (Homo sapiens, UniProt P09619); assay: PAE-PDGFRβ Phosphorylation in PAE-PDGFRB Cells Assay; format: cell-based; settings: PAE cells overexpressing human PDGFRβ; read-out: PAE PDGFR autophos IC50
T4 construct: expressed in transfected cells; host or cells: porcine aorta endothelial (PAE) cells
Protocol: This assay determines the ability of a test compound to inhibit the autophosphorylation of PDGFRβ in porcine aorta endothelial (PAE)-PDGFRβ cells. PAE cells that overexpress human PDGFRβ were used in this assay. The cells were cultured in Ham's F12 media supplemented with 10% fetal bovine serum (FBS) and 400 ug/ml G418. Twenty thousands cells were seeded in each well of a 96-well plate in 50 μL of growth media and allowed to attach for 6 hours at 37° C. Cells were then exposed to the starvation media (Ham's F12 media supplemented with 0.1% FBS) for 16 hours. After the starvation period was over, 10 μL of test agent in 5% DMSO in starvation media were added to the test wells and 10 μL of the vehicle (5% DMSO in starvation media) were added into the control wells. The final DMSO concentration in each well was 0.5%. Plates were incubated at 37° C. for 1 hour and the cells were then stimulated with 1 μg/mL PDGF-BB (R & D System) in the presence of 2 mM Na3VO4 for 8 minutes. The cells were washed once with 1 mm Na3VO4 in HBSS and lysed by adding 50 μL per well of lysis buffer. One hundred μL of dilution buffer were then added to each well and the diluted cell lysate was transferred to a 96-well goat ant-rabbit coated plate (Pierce), which was pre-coated with Rabbit anti Human PDGFRβ antibody (Santa Cruz). The plates were incubated at room temperature for 2 hours and washed seven times with 1% Tween 20 in PBS. HRP-PY20 (Santa Cruz) was diluted and added to the plate for a 30-minute incubation. Plates were then washed again and TMB peroxidase substrate (Kirkegaard & Perry) was added for a 10-minute incubation. One hundred μL of 0.09 N H2SO4 was added into each well of the 96-well plate to stop the reaction. Phosphorylation status was assessed by spectrophotometer reading at 450 nm. IC50 values were calculated by curve fitting using a four-parameter analysis.

T3 sequence (P11362 456-766 L457V/C488A/C584S): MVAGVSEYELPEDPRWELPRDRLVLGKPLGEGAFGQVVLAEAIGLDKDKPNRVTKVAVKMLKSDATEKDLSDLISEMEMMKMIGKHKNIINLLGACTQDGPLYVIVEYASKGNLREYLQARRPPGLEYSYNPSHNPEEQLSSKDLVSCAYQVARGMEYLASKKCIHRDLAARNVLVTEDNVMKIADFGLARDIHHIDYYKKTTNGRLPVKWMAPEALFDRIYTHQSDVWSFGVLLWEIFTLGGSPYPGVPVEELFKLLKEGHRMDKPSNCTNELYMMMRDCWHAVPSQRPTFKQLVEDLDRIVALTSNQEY
T4 sequence (P09619 33-1106): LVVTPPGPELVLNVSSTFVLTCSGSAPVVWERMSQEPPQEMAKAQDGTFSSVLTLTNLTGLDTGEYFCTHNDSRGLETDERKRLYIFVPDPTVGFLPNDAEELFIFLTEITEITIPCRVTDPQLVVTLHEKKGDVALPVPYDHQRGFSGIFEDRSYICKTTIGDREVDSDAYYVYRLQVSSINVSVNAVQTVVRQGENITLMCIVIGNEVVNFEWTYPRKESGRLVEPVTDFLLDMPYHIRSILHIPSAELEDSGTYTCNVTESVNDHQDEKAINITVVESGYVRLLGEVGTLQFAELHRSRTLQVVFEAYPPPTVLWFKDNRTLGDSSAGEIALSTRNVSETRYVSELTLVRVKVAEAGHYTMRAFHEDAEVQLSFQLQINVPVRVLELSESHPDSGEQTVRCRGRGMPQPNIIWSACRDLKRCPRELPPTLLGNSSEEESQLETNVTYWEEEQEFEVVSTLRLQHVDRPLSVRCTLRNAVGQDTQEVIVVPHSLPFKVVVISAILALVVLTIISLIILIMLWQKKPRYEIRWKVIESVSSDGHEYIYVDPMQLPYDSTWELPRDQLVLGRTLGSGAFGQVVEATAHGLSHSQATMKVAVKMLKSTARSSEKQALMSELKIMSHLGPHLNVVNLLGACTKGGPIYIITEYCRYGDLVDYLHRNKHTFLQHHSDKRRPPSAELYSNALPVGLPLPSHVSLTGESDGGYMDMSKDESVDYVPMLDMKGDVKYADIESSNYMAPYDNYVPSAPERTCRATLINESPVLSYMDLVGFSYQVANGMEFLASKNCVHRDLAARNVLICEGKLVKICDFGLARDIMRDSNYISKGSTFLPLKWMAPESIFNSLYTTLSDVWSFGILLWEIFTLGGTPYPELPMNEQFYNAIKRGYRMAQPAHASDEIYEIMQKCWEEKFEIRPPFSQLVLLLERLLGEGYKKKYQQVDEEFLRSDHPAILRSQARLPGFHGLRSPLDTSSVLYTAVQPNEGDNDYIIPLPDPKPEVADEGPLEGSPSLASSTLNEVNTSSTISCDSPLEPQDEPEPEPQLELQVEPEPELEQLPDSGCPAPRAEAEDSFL
T2 sequence (P06239 223-509 P223M/C224D): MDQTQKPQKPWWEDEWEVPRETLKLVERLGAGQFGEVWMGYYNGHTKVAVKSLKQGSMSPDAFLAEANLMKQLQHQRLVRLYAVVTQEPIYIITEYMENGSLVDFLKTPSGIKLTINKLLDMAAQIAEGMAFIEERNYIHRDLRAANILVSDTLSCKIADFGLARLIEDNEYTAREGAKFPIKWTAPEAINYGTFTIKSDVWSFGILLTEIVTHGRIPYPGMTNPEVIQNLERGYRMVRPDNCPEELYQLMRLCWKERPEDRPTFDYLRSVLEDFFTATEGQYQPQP
T1 sequence (P35968 with tags, fused parts or gaps DEL940-989/E990V limits assumed): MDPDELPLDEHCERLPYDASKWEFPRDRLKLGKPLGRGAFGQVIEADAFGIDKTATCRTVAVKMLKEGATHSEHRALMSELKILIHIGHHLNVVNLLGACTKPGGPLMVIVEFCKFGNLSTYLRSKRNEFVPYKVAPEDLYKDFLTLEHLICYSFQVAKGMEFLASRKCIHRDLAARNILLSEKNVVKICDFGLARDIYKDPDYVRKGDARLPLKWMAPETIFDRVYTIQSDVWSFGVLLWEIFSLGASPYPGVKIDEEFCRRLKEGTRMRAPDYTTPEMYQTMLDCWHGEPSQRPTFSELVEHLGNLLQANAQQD

In the case of `CONC(=O)c1ccccc1Nc1ccc2c(/C=C/c3ccccn3)n[nH]c2c1` [Example 3(a), N-Methoxy-2-[3-((E)-2-pyridin-2-yl-vinyl)-1H-indazol-6-ylamino]-benzamide], the inhibition at 0.05 µM [1] is reported as 98%, the inhibition at 1 µM (LCK) is reported as 30% and the inhibition at 1 µM (FGF-R1) is reported as 99%. The IC50 [2] was 12.7 nM.

Work on `Cc1ccnc(/C=C/c2n[nH]c3cc(Nc4ccccc4C(=O)NCc4cc(C)nn4C)ccc23)c1` [Example 41, N-(2,5-Dimethyl-2H-pyrazol-3-ylmethyl)-2-{3-[(E)-2-(4-methyl-pyridin-2-yl)-vinyl]-1H-indazol-6-ylamino}-benzamide] yielded an inhibition at 0.05 µM [1] of 45%, an inhibition at 1 µM (FGF-R1) of 11% and an IC50 [2] of 6.4 nM. The IC50 (HUVEC) was 3780 nM.

For `O=C(NCc1ccccc1)c1ccccc1Nc1ccc2c(/C=C/c3ccccn3)n[nH]c2c1` [Example 3(g), N-Benzyl-2-[3-((E)-2-pyridin-2-yl-vinyl)-1H-indazol6-ylamino]-benzamide], the inhibition at 0.05 µM [1] was 95%, the inhibition at 1 µM (LCK) was 28% and the inhibition at 1 µM (FGF-R1) was 72%. For the same molecule, the IC50 [2] was 1.1 nM and the “% remaining (HLM)” value ([3]; @0.5 h) was 72@0.5 h %.

Work on `C=CCONC(=O)c1ccccc1Nc1ccc2c(/C=C/c3ccccn3)n[nH]c2c1` [Example 3(b), N-Allyloxy-2-[3-((E)-2-pyridin-2-yl-vinyl)-1H-indazol-6-ylamino]-benzamide] yielded an inhibition at 0.05 µM [1] of 98%, an inhibition at 1 µM (LCK) of 27% and an inhibition at 1 µM (FGF-R1) of 96%. The IC50 [2] was 5.7 nM and the “% remaining (HLM)” value ([3]; @2 h) was 84@2 h %.

Work on `C=C(C)CNC(=O)c1ccccc1Nc1ccc2c(/C=C/c3cc(C)cc(C)n3)n[nH]c2c1` [Example 15, 2-{3-[2-(4,6-Dimethyl-pyridin-2-yl)-vinyl]-1H-indazol-6-ylamino}-N-(2-methyl-allyl)-benzamide] yielded an inhibition at 0.05 µM [1] of 64%, an inhibition at 1 µM (FGF-R1) of 29% and an IC50 [2] of 1.5 nM. It also gave an IC50 (PDGFRβ) of 12.3 nM and an IC50 (HUVEC) of 1610 nM.

`Cc1cc(C)nc(/C=C/c2n[nH]c3cc(Nc4ccccc4C(=O)NCC#CC4CC4)ccc23)c1` [Example 18, N-(3-Cycloprop-2-ynyl)-2-{3-[(E)-2-(4,6-dimethyl-pyridin-2-yl)-vinyl]-1H-indazol-6-ylamino}-benzamide] gave an inhibition at 0.05 µM [1] of 94%, an inhibition at 1 µM (FGF-R1) of 59% and an IC50 (HUVEC) of 1880 nM.

Molecule `O=C(NCc1ccco1)c1ccccc1Nc1ccc2c(/C=C/c3ccccn3)n[nH]c2c1` [Example 3(i), N-Furan-2-ylmethyl-2-[3-((E)-2-pyridin-2-yl-vinyl)-1H-indazol-6-ylamino]-benzamide] has an inhibition at 0.05 µM [1] of 88%, an inhibition at 1 µM (LCK) of 22% and an inhibition at 1 µM (FGF-R1) of 45%. The IC50 [2] was 0.2 nM, the IC50 (PDGFRβ) was 1.9 nM and the IC50 (HUVEC) was 1000 nM.

`Cc1cc(CNC(=O)c2ccccc2Nc2ccc3c(/C=N/n4cccc4)n[nH]c3c2)n(C)n1` [Example 61, N-(2,5-Dimethyl-2H-pyrazol-3-ylmethyl)-2-[3-(pyrrol-1-yliminomethyl)-1H-indazol-6-ylamino]-benzamide] showed an inhibition at 0.05 µM [1] of 65%, an inhibition at 1 µM (FGF-R1) of 14% and an IC50 [2] of 6.5 nM. The IC50 (HUVEC) was 662 nM.

In the case of `Cc1cc(CNC(=O)c2ccccc2Nc2ccc3c(/C=C/c4ccccn4)n[nH]c3c2)n(C)n1` [Example 65, N-(2,5-Dimethyl-2H-pyrazol-3-ylmethyl)-2-[3-(2-pyridin-2-yl-vinyl)-1H-indazol-6-ylamino]-benzamide], the Ki ([1]; cell prints nM instead of % inhibition) is reported as 3.11 nM, the IC50 [2] is reported as 3.4 nM and the “% remaining (HLM)” value ([3]; @0.5 h) is reported as 86@0.5 h %. It also gave an IC50 (PDGFRβ) of 5.8 nM.
